For one compound, IC50, inhibition and solubility results are on record in ChEMBL document CHEMBL4680176, “Identification of DOT1L inhibitors by structure-based virtual screening adapted from a nucleoside-focused library” (Eur J Med Chem, 2020).

In general, IC50 refers to the midpoint of a concentration-inhibition curve. For orientation: solubility means the dissolved amount per volume that the medium holds. Higher therefore signals a readily soluble substance.

Structures are written as SMILES. Values after ≈ are worked out from the molar mass of the structure shown.

Data set [1] concerns the target T1, Histone-lysine N-methyltransferase EHMT2 (Homo sapiens, UniProt Q96KQ7).
T1 sequence (Q96KQ7 whole entry): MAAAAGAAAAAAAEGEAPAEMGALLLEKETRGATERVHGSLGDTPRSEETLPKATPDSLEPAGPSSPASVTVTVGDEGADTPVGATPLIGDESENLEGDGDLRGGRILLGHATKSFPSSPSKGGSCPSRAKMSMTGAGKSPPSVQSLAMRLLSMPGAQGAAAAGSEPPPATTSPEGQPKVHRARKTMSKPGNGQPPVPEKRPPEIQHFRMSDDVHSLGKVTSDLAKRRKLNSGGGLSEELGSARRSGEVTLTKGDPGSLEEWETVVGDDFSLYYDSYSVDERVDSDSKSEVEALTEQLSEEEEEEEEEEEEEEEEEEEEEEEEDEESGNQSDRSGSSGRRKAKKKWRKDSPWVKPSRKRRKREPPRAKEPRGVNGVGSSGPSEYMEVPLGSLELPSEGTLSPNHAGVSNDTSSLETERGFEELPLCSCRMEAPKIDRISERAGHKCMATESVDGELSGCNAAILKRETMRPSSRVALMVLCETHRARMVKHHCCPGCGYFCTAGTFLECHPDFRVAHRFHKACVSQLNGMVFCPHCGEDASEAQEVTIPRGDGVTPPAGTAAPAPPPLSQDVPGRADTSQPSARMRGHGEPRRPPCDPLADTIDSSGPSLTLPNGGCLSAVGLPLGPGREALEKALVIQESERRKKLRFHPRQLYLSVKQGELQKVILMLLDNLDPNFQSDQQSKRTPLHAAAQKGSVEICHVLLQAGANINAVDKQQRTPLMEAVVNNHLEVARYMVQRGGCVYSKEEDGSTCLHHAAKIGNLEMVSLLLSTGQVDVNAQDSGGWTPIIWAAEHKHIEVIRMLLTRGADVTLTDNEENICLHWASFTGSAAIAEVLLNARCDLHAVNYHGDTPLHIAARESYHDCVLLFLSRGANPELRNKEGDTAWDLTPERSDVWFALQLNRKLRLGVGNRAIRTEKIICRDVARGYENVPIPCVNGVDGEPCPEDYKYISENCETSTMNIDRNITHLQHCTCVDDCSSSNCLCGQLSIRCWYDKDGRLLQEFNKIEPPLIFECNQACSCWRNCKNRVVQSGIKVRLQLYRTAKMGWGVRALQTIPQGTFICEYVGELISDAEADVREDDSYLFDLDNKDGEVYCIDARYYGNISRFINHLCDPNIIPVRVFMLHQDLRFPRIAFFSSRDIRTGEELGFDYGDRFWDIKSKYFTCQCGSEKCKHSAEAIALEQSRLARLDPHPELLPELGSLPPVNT
Briefly: Inhibition of recombinant human G9a using histone H3 (1 to 21) as substrate by hotspot assay.

The target in data set [2] is T2, Histone H3 methyltransferase DOT1 variant d (Mus musculus) (UniProt Q679P4).
T2 sequence (whole entry): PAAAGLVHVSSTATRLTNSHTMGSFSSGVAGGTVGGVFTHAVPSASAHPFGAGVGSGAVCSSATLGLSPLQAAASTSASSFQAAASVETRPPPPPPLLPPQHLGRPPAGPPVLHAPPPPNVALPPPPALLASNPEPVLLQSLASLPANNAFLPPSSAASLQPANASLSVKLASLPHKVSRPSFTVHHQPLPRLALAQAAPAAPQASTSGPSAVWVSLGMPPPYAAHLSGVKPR
Briefly: Inhibition of DOT1L in mouse bone marrow cell transformed with MLL-AF9 cells assessed as reduction in H3K79 methylation measured after 6 days by Western blot analysis. It counts as cell-based. The conditions noted are these: time 6.0 day.

Data set [3] in a line: Aqueous solubility of compound. The data set is classed as physicochemical.
Data set [4] concerns the target Histone-lysine N-methyltransferase, H3 lysine-79 specific (Homo sapiens, UniProt Q8TEK3). Description: Inhibition of recombinant human N-terminal GST-tagged DOT1L (1 to 420 residues) expressed in Escherichia coli BL21 (DE3) using histone as substrate incubated for 1 hr by MTase-glo based luminescence assay.
Data set [5] concerns the target Protein arginine N-methyltransferase 3 (Homo sapiens, UniProt O60678). Description: Inhibition of recombinant human PRMT3 using histone H4 as substrate by hotspot assay. Conditions: read-out: IC50; call rule not given here.
Data set [6] has as its target T3, Histone-lysine N-methyltransferase SETD7 (Homo sapiens, UniProt Q8WTS6).
T3 sequence (Q8WTS6 whole entry): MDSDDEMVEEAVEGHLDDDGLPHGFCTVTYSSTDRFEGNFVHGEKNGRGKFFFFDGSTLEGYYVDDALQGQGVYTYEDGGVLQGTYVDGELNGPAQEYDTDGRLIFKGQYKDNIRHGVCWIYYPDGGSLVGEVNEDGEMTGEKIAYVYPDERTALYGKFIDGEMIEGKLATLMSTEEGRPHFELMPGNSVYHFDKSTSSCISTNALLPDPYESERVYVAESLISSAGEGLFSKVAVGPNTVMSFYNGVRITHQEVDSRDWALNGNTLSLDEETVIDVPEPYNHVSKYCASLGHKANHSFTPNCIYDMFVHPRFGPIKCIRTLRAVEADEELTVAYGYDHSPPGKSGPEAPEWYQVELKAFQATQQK
Briefly: Inhibition of recombinant human SET7/9 using core histone as substrate by hotspot assay.

Protein arginine N-methyltransferase 3, sequence (O60678 whole entry): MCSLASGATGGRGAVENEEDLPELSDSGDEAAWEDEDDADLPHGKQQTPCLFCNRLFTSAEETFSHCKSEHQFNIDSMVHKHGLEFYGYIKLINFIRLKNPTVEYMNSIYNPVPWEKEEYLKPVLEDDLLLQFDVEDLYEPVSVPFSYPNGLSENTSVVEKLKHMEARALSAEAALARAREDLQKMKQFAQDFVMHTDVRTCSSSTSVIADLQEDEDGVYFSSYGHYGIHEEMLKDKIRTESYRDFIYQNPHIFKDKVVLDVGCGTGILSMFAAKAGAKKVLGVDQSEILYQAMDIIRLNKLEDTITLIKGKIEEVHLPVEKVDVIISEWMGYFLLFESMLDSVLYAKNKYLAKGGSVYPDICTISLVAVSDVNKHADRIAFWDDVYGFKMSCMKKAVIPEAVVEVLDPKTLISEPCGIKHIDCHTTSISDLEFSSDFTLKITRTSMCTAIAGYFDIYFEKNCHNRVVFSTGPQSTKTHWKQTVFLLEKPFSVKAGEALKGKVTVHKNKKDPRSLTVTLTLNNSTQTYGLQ
Histone-lysine N-methyltransferase, H3 lysine-79 specific, sequence (Q8TEK3 whole entry, the tested form may be a part): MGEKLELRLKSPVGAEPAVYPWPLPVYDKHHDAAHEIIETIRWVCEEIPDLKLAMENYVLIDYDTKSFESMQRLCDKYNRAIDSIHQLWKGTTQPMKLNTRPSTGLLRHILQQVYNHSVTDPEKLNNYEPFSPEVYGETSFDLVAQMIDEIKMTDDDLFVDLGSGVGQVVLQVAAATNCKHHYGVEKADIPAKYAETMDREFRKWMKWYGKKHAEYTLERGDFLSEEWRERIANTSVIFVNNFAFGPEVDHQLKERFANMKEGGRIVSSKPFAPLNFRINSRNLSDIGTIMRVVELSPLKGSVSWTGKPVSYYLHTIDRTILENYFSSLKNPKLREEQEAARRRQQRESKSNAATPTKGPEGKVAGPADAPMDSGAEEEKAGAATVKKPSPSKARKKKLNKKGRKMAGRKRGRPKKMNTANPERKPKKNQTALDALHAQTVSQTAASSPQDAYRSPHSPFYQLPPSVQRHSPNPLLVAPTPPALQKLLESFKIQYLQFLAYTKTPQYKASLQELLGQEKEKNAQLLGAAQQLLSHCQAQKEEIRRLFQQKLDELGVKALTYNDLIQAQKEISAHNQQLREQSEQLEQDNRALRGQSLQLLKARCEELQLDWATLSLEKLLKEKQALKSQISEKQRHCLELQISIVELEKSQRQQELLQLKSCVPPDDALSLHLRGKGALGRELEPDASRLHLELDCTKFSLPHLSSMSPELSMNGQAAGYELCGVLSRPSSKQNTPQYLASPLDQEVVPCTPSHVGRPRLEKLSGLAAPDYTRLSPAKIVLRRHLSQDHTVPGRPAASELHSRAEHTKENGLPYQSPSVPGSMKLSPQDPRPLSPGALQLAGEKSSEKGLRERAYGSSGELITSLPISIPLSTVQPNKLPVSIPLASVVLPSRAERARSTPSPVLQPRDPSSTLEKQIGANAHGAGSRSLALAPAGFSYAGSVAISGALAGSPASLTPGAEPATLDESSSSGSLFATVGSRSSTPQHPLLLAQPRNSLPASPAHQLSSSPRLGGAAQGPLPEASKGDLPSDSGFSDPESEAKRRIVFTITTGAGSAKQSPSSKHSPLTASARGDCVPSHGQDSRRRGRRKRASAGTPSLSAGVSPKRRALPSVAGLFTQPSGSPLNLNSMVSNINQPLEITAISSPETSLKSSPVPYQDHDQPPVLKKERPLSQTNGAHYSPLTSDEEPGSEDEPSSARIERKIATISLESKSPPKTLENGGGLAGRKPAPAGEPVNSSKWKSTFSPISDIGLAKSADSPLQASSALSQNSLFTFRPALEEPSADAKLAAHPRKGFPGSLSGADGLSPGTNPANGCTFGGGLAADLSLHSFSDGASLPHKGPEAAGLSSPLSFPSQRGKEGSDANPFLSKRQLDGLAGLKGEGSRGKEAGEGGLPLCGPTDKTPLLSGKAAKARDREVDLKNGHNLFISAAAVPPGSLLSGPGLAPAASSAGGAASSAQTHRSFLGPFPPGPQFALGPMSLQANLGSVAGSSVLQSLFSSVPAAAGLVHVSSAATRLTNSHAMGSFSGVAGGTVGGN

As for `CC(C)(C)c1ccc(NC(=O)c2ncn(CC(=O)NCCn3ccc4c(N)ncnc43)n2)cc1`, the IC50 entry is “Not Active” in data set [1], 1 µM in data set [4], 115 µM in data set [5] and “Not Active” in data set [6]. Besides, in data set [2], the inhibition result was “Dose-dependent effect”. Moreover, the solubility in data set [3] turned out to be 687 µM (≈ 317 µg/mL).
